Reference: patent US7875587B2, “Peptide analogues of GIP for treatment of diabetes, insulin resistance and obesity” (UUTECH Limited, priority 2004, dated 2011)
Blank lines part the entries; values can stand above or below the compound they belong to.

What was measured:
[1] = biological target: T1, purified porcine dipeptidylpeptidase IV (Sus scrofa, UniProt P22411); experiment: DPP IV degradation studies of fatty acid derivatised GIP analogues; type: in vitro ADME
T1 construct: purchased Sigma (Poole, Dorset, UK)
Method: DPP IV degradation studies. GIP and fatty acid derivatised GIP analogues were incubated at 37° C. with purified porcine dipeptidylpeptidase IV (5 mU in 50 mmol/l triethanolamine-HCl; pH 7.8) for 0, 2, 4, 8 and 24 hours (final peptide concentration 2 mmol/l). The reactions were subsequently terminated by addition of 10% (v/v) TFA/water and the reaction products separated using HPLC. […] HPLC peak area data were used to calculate % intact peptide remaining throughout the incubation.

[2] = tested on: BRIN-BD11 cells; experiment: Insulin release from clonal pancreatic BRIN-BD11 cells (Example 6); type: cell-based; settings: 5.6 mmol/l glucose, 20 minutes incubation
Method: Cells and cell culture. Chinese hamster lung (CHL) fibroblasts stably transfected with the human GIP receptor (Gremlich, S. et al., 1995, Diabetes 44: 1202-1208) were cultured in DMEM tissue culture medium containing 10% (v/v) FBS, 1% (v/v) antibiotics (100 U/ml penicillin, 0.1 mg/ml streptomycin). Clonal pancreatic BRIN-BD11 cells (McClenaghan, N. H. et al., 1996, Diabetes 45: 1132-1140) were cultured using RPMI-1640 culture medium containing 10% (v/v) FBS, 1% (v/v) antibiotics (100 U/ml penicillin, 0.1 mg/ml streptomycin) and 11.1 mmol/l glucose. Cells were maintained at 37° C. in an atmosphere of 5% CO2 and 95% air using an LEEC incubator (Laboratory Technical Engineering, Nottingham, UK).
Insulin-release studies were carried out using clonal pancreatic BRIN-BD11 cells as described previously (O'Harte, F. P. M. et al., 2002, Diabetologia 45: 1281-1291). Briefly, BRIN-BD11 cells were seeded into 24-well plates at a density of 10^5 cells per well, and allowed to attach overnight at 37° C. Acute tests for insulin release were preceded by 40 minutes pre-incubation at 37° C. in 1.0 ml Krebs Ringer bicarbonate buffer supplemented with 1.1 mmol/l glucose. Test incubations were performed in the presence of 5.6 mmol/l glucose with a range of concentrations (10^−13 to 10^−6 mol/l) of GIP and GIP analogues. After 20 minutes incubation, the buffer was removed from each well and aliquots (200 μl) used for measurement of insulin.

[3] = tested on: ob/ob mice; experiment: Once daily i.p. injection for 14 days in ob/ob mice; type: in vivo, mouse; settings: for body weight / food intake / non-fasting plasma insulin: 14 days; for plasma insulin response to glucose (AUC) / glucose tolerance: after 14 daily injections; for glucose tolerance: i.p. glucose 18 mmoles/kg; for insulin sensitivity: after 14 days, insulin 50 U/kg i.p.
Method: Animals. Obese diabetic (ob/ob) mice derived from the colony maintained at Aston University, UK were used at 12-17 weeks of age. The genetic background and characteristics of the colony used have been outlined in detail elsewhere (Bailey, C. J. et al., 1982, Int. J. Obesity 6:11-21; Gault, V. A. et al., 2003, J. Endocrinol. 176: 133-141). Animals were housed in an air-conditioned room at 22±2° C. with a 12 hours light: 12 hours dark cycle. Drinking water and standard rodent maintenance diet (Trouw Nutrition, Cheshire, UK) were freely available. All test solutions were administered by i.p. injection in a final volume of 5 ml/kg bw. Blood was collected from the cut tip of the tail vein of conscious mice into chilled fluoride/heparin microcentrifuge tubes immediately prior to injection and at the times indicated in the Figures. Plasma was separated using a Beckman microcentrifuge (Beckman Instruments, UK) at 13,000 g for 30 second and stored at −20° C. prior to glucose and insulin determinations. All animal experiments were carried out in accordance with the UK Animals (Scientific Procedures) Act 1986.
Metabolic and dose-response effects of GIP and N-AcGIP(LysPAL) analogues (at 6.25-25 nmoles/kg bw) following glucose administration (18 mmoles/kg bw) were examined in mice fasted for 18 hours. […] Food intake and body weight were recorded daily. Plasma glucose and insulin concentrations were monitored at 2-6 day intervals. At 14 days, groups of animals were used to evaluate intraperitoneal glucose tolerance (18 mmoles/kg) and insulin sensitivity (50 U/kg). In a separate series, two experimental protocols were employed to examine the possibility of GIP receptor desensitization after 14 days treatment. […] At the end of the 14-day treatment period, pancreatic tissues were excised for measurement of insulin following extraction with 5 ml/g ice-cold acid ethanol (75% ethanol, […], 1.5% HCl). Whole blood was taken for determination of glycated hemoglobin.
Biochemical analyses. Plasma glucose was assayed by an automated glucose oxidase procedure (Stevens, J. F., 1971, Clin. Chem. Acta 32:199-201) using a Beckman Glucose Analyser II (Beckman, Galway, Ireland). Plasma insulin was determined by dextran-charcoal RIA as described previously (Flatt, P. R. et al., 1981, Diabetologia 20: 573-577). Glycated hemoglobin was determined using cation-exchange columns (Sigma, Poole, Dorset, UK) with measurement of absorbance (415 nm) in wash and eluting buffers using a VersaMax microplate spectrophotometer (Molecular Devices, Wokingham, Berkshire, UK).
Statistics. Results are expressed as mean±SEM. Data were compared using the unpaired Student's t-test. Where appropriate, data were compared using repeated measures ANOVA or one-way ANOVA, followed by the Student-Newman-Keuls post hoc test. Incremental areas under plasma glucose and insulin curves (AUC) were calculated using a computer-generated program employing the trapezoidal rule (Burington, R. S., 1973, Handbook of Mathematical Tables and Formulae, McGraw-Hill, New York) with baseline subtraction.

T1 sequence (P22411 whole entry): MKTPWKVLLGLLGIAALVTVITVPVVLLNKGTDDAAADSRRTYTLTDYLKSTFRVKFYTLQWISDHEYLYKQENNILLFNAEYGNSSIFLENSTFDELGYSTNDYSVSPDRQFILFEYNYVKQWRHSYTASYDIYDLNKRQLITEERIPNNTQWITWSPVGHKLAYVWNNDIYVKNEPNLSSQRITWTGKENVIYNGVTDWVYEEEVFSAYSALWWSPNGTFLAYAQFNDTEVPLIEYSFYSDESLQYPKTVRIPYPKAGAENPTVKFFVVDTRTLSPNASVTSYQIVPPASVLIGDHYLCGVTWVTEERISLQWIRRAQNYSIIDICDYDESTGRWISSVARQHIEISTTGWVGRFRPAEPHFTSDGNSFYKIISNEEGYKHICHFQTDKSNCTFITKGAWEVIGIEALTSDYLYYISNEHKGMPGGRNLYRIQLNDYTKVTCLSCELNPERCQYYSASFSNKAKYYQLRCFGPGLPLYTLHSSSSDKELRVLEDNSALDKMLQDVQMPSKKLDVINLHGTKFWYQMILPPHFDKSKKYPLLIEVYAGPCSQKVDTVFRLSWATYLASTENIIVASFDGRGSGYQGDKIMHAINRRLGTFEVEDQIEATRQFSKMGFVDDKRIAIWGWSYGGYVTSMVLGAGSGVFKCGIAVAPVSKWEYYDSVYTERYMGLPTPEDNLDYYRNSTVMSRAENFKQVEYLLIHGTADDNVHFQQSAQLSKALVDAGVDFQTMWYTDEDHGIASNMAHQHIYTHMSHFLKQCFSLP

SMILES: CCCCCCCCCCCCCCCC(=O)NCCCC[C@H](NC(=O)[C@H](Cc1c[nH]c2ccccc12)NC(=O)[C@H](CC(=O)O)NC(=O)[C@H](CC(N)=O)NC(=O)[C@H](CCCCN)NC(=O)[C@H](CCCCN)NC(=O)CNC(=O)[C@H](CCCCN)NC(=O)[C@H](CCC(N)=O)NC(=O)[C@H](C)NC(=O)[C@H](CC(C)C)NC(=O)[C@H](CC(C)C)NC(=O)[C@H](Cc1c[nH]c2ccccc12)NC(=O)[C@H](CC(N)=O)NC(=O)[C@@H](NC(=O)[C@H](Cc1ccccc1)NC(=O)[C@H](CC(=O)O)NC(=O)[C@H](CCC(N)=O)NC(=O)[C@H](CCC(N)=O)NC(=O)[C@H](Cc1c[nH]cn1)NC(=O)[C@@H](NC(=O)[C@H](CCCCN)NC(=O)[C@H](CC(=O)O)NC(=O)[C@H](CCSC)NC(=O)[C@H](C)NC(=O)[C@@H](NC(=O)[C@H](CO)NC(=O)[C@H](Cc1ccc(O)cc1)NC(=O)[C@H](CC(=O)O)NC(=O)[C@H](CO)NC(=O)[C@@H](NC(=O)[C@H](Cc1ccccc1)NC(=O)[C@@H](NC(=O)CNC(=O)[C@H](CCC(=O)O)NC(=O)[C@H](C)NC(=O)[C@H](Cc1ccc(O)cc1)NC(C)=O)[C@@H](C)O)[C@@H](C)CC)[C@@H](C)CC)[C@@H](C)CC)C(C)C)C(=O)N[C@@H](Cc1c[nH]cn1)C(=O)N[C@@H](CC(N)=O)C(=O)N[C@H](C(=O)N[C@H](C(=O)N[C@@H](CCC(N)=O)C(=O)O)[C@@H](C)O)[C@@H](C)CC [N-AcGIP(LysPAL^37)]
% Intact peptide remaining after time (hours) ([1]; incubation with DPP IV, 0 h): 100% | % Intact peptide remaining after time (hours) ([1]; incubation with DPP IV, 24 h): remained completely intact | insulin secretion compared to control [2]: significantly stimulated glucose-induced insulin secretion | body weight ([3]; 12.5 nmoles/kg/day): no effect | food intake ([3]; 12.5 nmoles/kg/day): no effect | non-fasting plasma insulin ([3]; 12.5 nmoles/kg/day): tendency towards elevated insulin concentrations | glycated hemoglobin ([3]; 12.5 nmoles/kg/day, at 14 days): significantly (p<0.01) decreased | non-fasting plasma glucose ([3]; 12.5 nmoles/kg/day, at 14 days): significantly (p<0.05) lowered | pancreatic insulin content ([3]; 14 days treatment): significantly increased | pancreatic weight ([3]; 14 days treatment): did not affect pancreatic weight | GIP receptor desensitization ([3]; acute 25 nmoles/kg with glucose after 14 days treatment): lack of GIP receptor desensitization | plasma insulin response to glucose (AUC) [3]: greater (p<0.01) overall AUC insulin response | glucose tolerance [3]: significant improvement in glucose tolerance | insulin sensitivity [3]: significant improvement of insulin sensitivity

% Intact peptide remaining after time (hours) ([1]; pig, 0 h): 100% | % Intact peptide remaining after time (hours) ([1]; pig, 2 h): 52±3% | % Intact peptide remaining after time (hours) ([1]; pig, 8 h): entirely degraded
SMILES: CC[C@H](C)[C@H](NC(=O)[C@H](CO)NC(=O)[C@H](Cc1ccc(O)cc1)NC(=O)[C@H](CC(=O)O)NC(=O)[C@H](CO)NC(=O)[C@@H](NC(=O)[C@H](Cc1ccccc1)NC(=O)[C@@H](NC(=O)CNC(=O)[C@H](CCC(=O)O)NC(=O)[C@H](C)NC(=O)[C@@H](N)Cc1ccc(O)cc1)[C@@H](C)O)[C@@H](C)CC)C(=O)N[C@@H](C)C(=O)N[C@@H](CCSC)C(=O)N[C@@H](CC(=O)O)C(=O)N[C@@H](CCCCN)C(=O)N[C@H](C(=O)N[C@@H](Cc1c[nH]cn1)C(=O)N[C@@H](CCC(N)=O)C(=O)N[C@@H](CCC(N)=O)C(=O)N[C@@H](CC(=O)O)C(=O)N[C@@H](Cc1ccccc1)C(=O)N[C@H](C(=O)N[C@@H](CC(N)=O)C(=O)N[C@@H](Cc1c[nH]c2ccccc12)C(=O)N[C@@H](CC(C)C)C(=O)N[C@@H](CC(C)C)C(=O)N[C@@H](C)C(=O)N[C@@H](CCC(N)=O)C(=O)N[C@@H](CCCCN)C(=O)NCC(=O)N[C@@H](CCCCN)C(=O)N[C@@H](CCCCN)C(=O)N[C@@H](CC(N)=O)C(=O)N[C@@H](CC(=O)O)C(=O)N[C@@H](Cc1c[nH]c2ccccc12)C(=O)N[C@@H](CCCCN)C(=O)N[C@@H](Cc1c[nH]cn1)C(=O)N[C@@H](CC(N)=O)C(=O)N[C@H](C(=O)N[C@H](C(=O)N[C@@H](CCC(N)=O)C(=O)O)[C@@H](C)O)[C@@H](C)CC)C(C)C)[C@@H](C)CC [GIP 1–42, reference compound]
insulin secretion compared to control [2]: dose-dependently stimulated insulin secretion | body weight ([3]; 12.5 nmoles/kg/day): no effect | food intake ([3]; 12.5 nmoles/kg/day): no effect | non-fasting plasma insulin ([3]; 12.5 nmoles/kg/day): unchanged | non-fasting plasma glucose ([3]; 12.5 nmoles/kg/day, at 14 days): unchanged | pancreatic weight ([3]; 14 days treatment): did not affect pancreatic weight | plasma insulin response to glucose (AUC) [3]: had no effect | glucose tolerance [3]: had no effect | insulin sensitivity [3]: did not affect the characteristic insulin resistance
